According to US20100063047A1 (KALYPSYS, INC., priority 2008, published 2010):

Key:
[1] = system: tissue eosinophil peroxidase (EPO); assay: Allergic conjunctivitis in passively sensitized guinea pigs, conjunctival EPO activity; format: in vivo; design: key: a test compound was assigned a “+” if a 0.01% bid dose was statistically equivalent to dexamethasone with respect to reduction of EPO activity; a “−” was assigned if the compound was statistically inferior to dexamethasone and not different than vehicle; settings: reduction of conjunctival EPO activity 24 h after ovalbumin challenge, compared with 0.1% w/v dexamethasone, guinea pig; for BID activity: 0.01% bid topical dose (1 hour prior to and 8 hours after challenge); for QD activity: ≦0.1% qd topical dose (1 hour prior to challenge)
Experimental: (§1) Allergic Conjunctivitis in Passively Sensitized Guinea Pigs
Male Hartley VAF outbred guinea pigs were passively sensitized to ovalbumin by a single OD subconjunctival injection of undiluted guinea pig anti-ovalbumin antiserum 24 hours before OD topical challenge with 500 μg ovalbumin in saline. Control animals were injected with saline only and challenged with ovalbumin. To determine acute phase drug efficacy, 30 min after challenge animals were clinically scored by a masked observer for severity of signs of conjunctivitis based on a standard scale. Test compounds were administered topically 1 hour prior to challenge (QD protocol), or 1 hour prior to challenge and again 8 hours after challenge (BID protocol). Twenty-four hours after challenge, animals were euthanized and conjunctivae were harvested for determination of tissue eosinophil peroxidase (EPO) concentration as a marker of allergic inflammation. Homogenates of freshly collected tissues were prepared by shaking the tissues in 2 mL round-bottom tubes containing 0.5 mL of homogenization buffer (50 mM Tris HCl, pH 8.0, 6 mM KBr) and one 5-mm stainless steel bead on a Qiagen TissueLyser at 30 Hz for 5 min. Homogenates were frozen and thawed once, then centrifuged at 10,000 rpm for 5 min. EPO activity in supernatants was measured by reacting diluted homogenates with a solution of 6 mM o-phenylenediamine substrate and 8.8 mM H2O2 in homogenization buffer for 3 min. The reaction was stopped with 4M H2SO4 and absorbances were measured at 490 nm on a spectrophotometric plate reader. Total EPO in samples was calculated from a standard curve of recombinant human EPO in each assay. EPO activity was normalized to total protein concentration (Pierce BCA assay) in supernatants. Background EPO activity was determined from the unsensitized, antigen-challenged control group. Percent inhibition was calculated from the sensitized, antigen-challenged, vehicle-treated control group in each experiment. Ovalbumin-injected animals dosed topically with 0.1% w/v dexamethasone (dex) served as positive control. Groups were compared by ANOVA with Dunnett's or Tukey's post-hoc tests where appropriate with significance assigned at the 95% confidence level.
The table below summarizes the results.

human H1 = molecular target: T1, human H1 (Homo sapiens, UniProt P35367); assay: In vitro histamine H1 receptor cell-based aequorin bioluminescence antagonist assay; settings: CHO-K1 cells expressing human H1 and aequorin; histamine at EC80; read-out: H1 Antagonist EC50
T1 construct: host or cells: CHO-K1, also expressing mitochondrion-targeted aequorin
T1 sequence (P35367 whole entry): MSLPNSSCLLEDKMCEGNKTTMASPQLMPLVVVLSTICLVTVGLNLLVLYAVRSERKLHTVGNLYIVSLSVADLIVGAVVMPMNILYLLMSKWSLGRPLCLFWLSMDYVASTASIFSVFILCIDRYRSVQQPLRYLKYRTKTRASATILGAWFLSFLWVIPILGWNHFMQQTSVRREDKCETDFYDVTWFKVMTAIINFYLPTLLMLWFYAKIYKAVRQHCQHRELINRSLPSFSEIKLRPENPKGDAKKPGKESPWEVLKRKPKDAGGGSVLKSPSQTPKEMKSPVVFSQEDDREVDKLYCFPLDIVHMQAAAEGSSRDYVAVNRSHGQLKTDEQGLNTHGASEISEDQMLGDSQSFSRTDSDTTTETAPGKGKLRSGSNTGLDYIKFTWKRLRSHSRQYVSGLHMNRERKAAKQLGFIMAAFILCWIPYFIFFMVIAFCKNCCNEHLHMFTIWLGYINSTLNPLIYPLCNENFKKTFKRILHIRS
Summary of the method: (§2)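 CHO-K1 cells stably expressing human H1 or H4 plus mitochondrial aequorin (H4 also with Gα16), loaded with 5 μM coelenterazine-h for 4 h at ~21 °C. Compounds preincubated 15 min at room temperature, then histamine at EC80 added.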

human H4 = molecular target: T2, human H4 (Homo sapiens, UniProt Q9H3N8); assay: In vitro histamine H4 receptor cell-based aequorin bioluminescence antagonist assay; settings: CHO-K1 cells expressing human H4, aequorin and Gα16; histamine at EC80
T2 construct: host or cells: CHO-K1, also expressing mitochondrion-targeted aequorin and human Gα16
Summary of the method: as §2

[2] = system: tissue eosinophil peroxidase (EPO); assay: Allergic conjunctivitis in passively sensitized guinea pigs, conjunctival EPO activity; format: in vivo; design: key: a test compound was assigned a “+” if a ≦0.1% qd dose was statistically equivalent to dexamethasone with respect to reduction of EPO activity; a “−” was assigned if the compound was statistically inferior to dexamethasone and not different than vehicle; settings: ≦0.1% qd topical dose (1 hour prior to challenge); reduction of conjunctival EPO activity 24 h after ovalbumin challenge, compared with 0.1% w/v dexamethasone; guinea pig
Experimental: as §1
Male Hartley VAF outbred guinea pigs were passively sensitized to ovalbumin by a single OD subconjunctival injection of undiluted guinea pig anti-ovalbumin antiserum 24 hours before OD topical challenge with 500 μg ovalbumin in saline. Control animals were injected with saline only and challenged with ovalbumin. To determine acute phase drug efficacy, 30 min after challenge animals were clinically scored by a masked observer for severity of signs of conjunctivitis based on a standard scale. Test compounds were administered topically 1 hour prior to challenge (QD protocol), or 1 hour prior to challenge and again 8 hours after challenge (BID protocol). […] EPO activity in supernatants was measured by reacting diluted homogenates with a solution of 6 mM o-phenylenediamine substrate and 8.8 mM H2O2 in homogenization buffer for 3 min. The reaction was stopped with 4M H2SO4 and absorbances were measured at 490 nm on a spectrophotometric plate reader. Total EPO in samples was calculated from a standard curve of recombinant human EPO in each assay. […] Background EPO activity was determined from the unsensitized, antigen-challenged control group. Percent inhibition was calculated from the sensitized, antigen-challenged, vehicle-treated control group in each experiment. […]

Row | SMILES | EC50 (human H1) [µM] | EC50 (human H4) [µM] | BID activity [1] | QD activity [1] | QD activity [2]
1 | Cc1csc2ncnc(NCC3(O)CCCCC3)c12 [Example 158, 1-[({5-methylthieno[2,3-d]pyrimidin-4-yl}amino)methyl]cyclohexan-1-ol] | > 10 | > 10 |  |  | 
2 | Cc1csc2ncnc(NCCN)c12 [Example 55, N-(2-aminoethyl)-5-methylthieno[2,3-d]pyrimidin-4-amine] | > 10 | > 10 |  |  | 
3 | CCOC(=O)CC1C(=O)NCCN1c1ncnc2scc(C)c12 (centres unmarked) [Example 249, ethyl 2-(1-{5-methylthieno[2,3-d]pyrimidin-4-yl}-3-oxopiperazin-2-yl)acetate] | > 10 | > 10 |  |  | 
4 | Cc1csc2ncnc(NC(C)Cc3ccncc3)c12 (centres unmarked) [Example 120, 5-methyl-N-[1-(pyridin-4-yl)propan-2-yl]thieno[2,3-d]pyrimidin-4-amine] | > 10 | > 10 |  |  | 
5 | Cc1csc2ncnc(NCc3cccnc3)c12 [Example 84, 5-methyl-N-(pyridin-3-ylmethyl)thieno[2,3-d]pyrimidin-4-amine] | > 10 | > 10 |  |  | 
6 | Cc1csc2ncnc(N3CCN(c4ccccn4)CC3)c12 [Example 234, 1-{5-methylthieno[2,3-d]pyrimidin-4-yl}-4-(pyridin-2-yl)piperazine] | > 10 | > 10 |  |  | 
7 | Cc1csc2ncnc(C(=O)NCc3ccc(Cl)cc3)c12 [Example 34, N-(4-chlorobenzyl)-5-methylthieno[2,3-d]pyrimidine-4-carboxamide] | > 10 | > 10 |  |  | 
8 | CCN(c1ncnc2scc(C)c12)C(Cc1ccccc1)c1ccco1 (centres unmarked) [Example 282, N-ethyl-N-[1-(furan-2-yl)-2-phenylethyl]-5-methylthieno[2,3-d]pyrimidin-4-amine] | > 10 | > 10 |  |  | 
9 | Cc1csc2ncnc(N3CCSCC3)c12 [Example 197, 4-{5-methylthieno[2,3-d]pyrimidin-4-yl}thiomorpholine] | > 10 | > 10 |  |  | 
10 | Cc1csc2ncnc(NCC(=O)c3ccccc3)c12 [Example 161, 2-({5-methylthieno[2,3-d]pyrimidin-4-yl}amino)-1-phenylethan-1-one] | > 10 | > 10 |  |  | 
11 | C#CCNc1ncnc2scc(C)c12 [Example 51, 5-methyl-N-(prop-2-yn-1-yl)thieno[2,3-d]pyrimidin-4-amine] | > 10 | > 10 |  |  | 
12 | Cc1csc2ncnc(NCCN3CCOCC3)c12 [Example 109, 5-methyl-N-[2-(morpholin-4-yl)ethyl]thieno[2,3-d]pyrimidin-4-amine] | > 10 | > 10 |  |  | 
13 | CCOC(=O)N1CCN(c2ncnc3scc(C)c23)CC1 [Example 230] | > 10 | > 10 |  |  | 

Second part, led by results:

Row | EC50 (human H1) [µM] | EC50 (human H4) [µM] | SMILES | BID activity [1] | QD activity [1] | QD activity [2]
14 | > 10 |  | Cc1sc2ncnc(NCCc3ccccc3Cl)c2c1C [Example 43, N-[2-(2-chlorophenyl)ethyl]-5,6-dimethylthieno[2,3-d]pyrimidin-4-amine] | − |  | 
15 | > 10 |  | Clc1ccc(CCNc2ncnc3sccc23)cc1 [Example 45, N-[2-(4-chlorophenyl)ethyl]thieno[2,3-d]pyrimidin-4-amine] | + | − | 
16 | > 10 | > 10 | Cc1csc2ncnc(NCc3ccccn3)c12 [Example 85, 5-methyl-N-(pyridin-2-ylmethyl)thieno[2,3-d]pyrimidin-4-amine] |  |  | +
17 | > 10 | > 10 | Clc1ccc(CCNc2nccc3sccc23)cc1 [Example 27, N-(4-chlorophenethyl)thieno[3,2-c]pyridin-4-amine] | + | − | 
18 | > 10 | > 10 | Cc1csc2ncnc(N(CCC#N)Cc3ccccc3)c12 [Example 153, 3-[benzyl({5-methylthieno[2,3-d]pyrimidin-4-yl})amino]propanenitrile] |  |  | 
19 | > 10 |  | Cc1csc2ncnc(NC3Cc4ccccc4C3)c12 [Example 29, N-(2,3-dihydro-1H-inden-2-yl)-5-methylthieno[2,3-d]pyrimidin-4-amine] |  |  | +
20 | > 10 | > 10 | Cc1csc2ncnc(N3CCCC3CO)c12 (centres unmarked) [Example 193, (1-{5-methylthieno[2,3-d]pyrimidin-4-yl}pyrrolidin-2-yl)methanol] |  |  | 
21 | > 10 | > 10 | Cc1csc2ncnc(N3CCN(c4ccc(C(F)(F)F)cn4)CC3)c12 [Example 2, 5-methyl-4-(4-(5-(trifluoromethyl)pyridin-2-yl)piperazin-1-yl)thieno[2,3-d]pyrimidine] |  |  | 
22 | > 10 | > 10 | Cc1csc2ncnc(N(C)CC(O)c3ccccc3)c12 (centres unmarked) [Example 227, 2-[methyl({5-methylthieno[2,3-d]pyrimidin-4-yl})amino]-1-phenylethan-1-ol] |  |  | 
23 | > 10 | > 10 | Cc1csc2ncnc(N3CCCN(Cc4ccccc4)CC3)c12 [Example 242, 1-benzyl-4-{5-methylthieno[2,3-d]pyrimidin-4-yl}-1,4-diazepane] |  |  | 
